# Measurements: patent US20080312080A1 (priority 2006, published 2008)
# Tested on: Aspergillus parasiticus NRRL 2999
# Type: cell-based
row,Substance,aflatoxin production inhibition activity (in words)
1,(S)-3-aminooctanoyl-(S)-3-aminooctanoyl-L-proline [Example 8],extremely excellent aflatoxin production inhibition activity
2,(S)-3-aminooctanoyl-(S)-3-aminooctanoyl-L-alanine [Example 6],extremely excellent aflatoxin production inhibition activity
3,(S)-3-aminooctanoyl-(S)-3-aminooctanoyl-glycine [Example 4],extremely excellent aflatoxin production inhibition activity
